{"source": "patent US11365425B2", "about": "“Resistant protein for use in herbicide, encoding gene and application thereof” (BEIJING DABEINONG BIOTECHNOLOGY CO., LTD., priority 2016, dated 2022)", "molecules": {"B1": {"name": "MTHFR66 protein: herbicide resistant protein, methyltetrahydrofolate reductase, amino acid sequence SEQ ID NO: 2 (289 amino acids) (protein, listed as Sphingomonas paucimobilis)", "chain": "MGSPVMAIDCDSVPDNLVHCFSIEMTGKDIDALQAAAPLLPPGTSVAVTFLPGENYETRIAACKAVRDLGFEPMPHFSARRIQDEAEFHDFLHAVVAEAKVRRCFVIAGDAAEPEGPYADSMQLIASGAFEAAGIDLIGVAGHPEGHPNMTAGEATAVLRAKTDEIERRGMAALIVTQFTFDAARTLDWLAEVRQAGIDVPVLLGVPGPAGIKTLLRFAARCGVGASASVLSKYGISIGHLLGSAGPDRFVDALRAGIGEQHGHVRLHFYPFGGLDKTARWIADYARKH"}}, "key": {"[1]": {"tested_on": "Arabidopsis thaliana T1 plants (At-MTHFR66)", "conditions": "560 g ae/ha dicamba (1 × dicamba) sprayed", "description": "(§1) Arabidopsis thaliana was first transformed with the MTHFR66 gene. T1 transformants were initially selected from the background of untransformed seeds using a glufosinate selection scheme. The plants that were transformed with the recombinant expression vector DBN111101 were Arabidopsis thaliana plants (At mMTHFR66) into which an optimized MTHFR66 nucleotide sequence located in the chloroplast was introduced, and the plants that were transformed with the recombinant expression vector DBN111101N were Arabidopsis thaliana plants (At MTHFR66) into which a natural MTHFR66 nucleotide sequence located in the chloroplast was introduced. […] Arabidopsis thaliana T1 plants (At-mMTHFR66) into which an optimized MTHFR66 nucleotide sequence was introduced, Arabidopsis thaliana T1 plants (At-MTHFR66) into which a natural MTHFR66 nucleotide sequence was introduced and wild-type Arabidopsis thaliana plants (18 days after sowing) were tested for the herbicide tolerance effect to dicamba.\n(§2) Arabidopsis thaliana T1 plants into which an optimized MTHFR66 nucleotide sequence was introduced, Arabidopsis thaliana T1 plants into which a natural MTHFR66 nucleotide sequence was introduced and wild-type Arabidopsis thaliana plants were sprayed with dicamba (560 g ae/ha, 1-fold field concentration) and a blank solvent (water) respectively. Plants were counted for the tolerance situations 7 days and 14 days after spraying: those having a consistent growth status with the blank solvent (water) group after 7 days were classified as highly resistant plants, those having curled rosette leaves after 7 days were classified as moderately resistant plants, those still not capable of bolting after 14 days were classified as lowly resistant plants, and those dead after 14 days were classified as non-resistant plants. Since each Arabidopsis thaliana T1 plant was an independent transformation event, a significant difference in individual T1 responses could be expected at a given dose. The results were shown as Table 1 and FIG. 9."}, "[2]": {"tested_on": "wild-type Arabidopsis thaliana plants", "conditions": "560 g ae/ha dicamba (1 × dicamba) sprayed", "description": "as §1, §2"}, "[3]": {"tested_on": "Arabidopsis thaliana T1 plants (At-mMTHFR66)", "conditions": "560 g ae/ha dicamba (1 × dicamba) sprayed", "description": "as §1, §2"}, "[4]": {"tested_on": "maize plants (Zm-mMTHFR66)", "conditions": "4480 g ae/ha dicamba (8 × dicamba), V5-V6 stage, 21 days after spraying", "description": "(§3) The maize plants into which the optimized MTHFR66 nucleotide sequence was introduced, the maize plants into which the natural MTHFR66 nucleotide sequence was introduced and wild-type maize plants (at V5-V6 stage) were respectively tested for the herbicide resistance effect to dicamba.\n(§4) The maize plants into which the optimized MTHFR66 nucleotide sequence was introduced, the maize plants into which the natural MTHFR66 nucleotide sequence was introduced and wild-type maize T1 hybrid plants (at V5-V6 stage) were taken and sprayed with a dicamba herbicide (4480 g ae/ha, 8-fold field concentration) and a blank solvent (water) respectively. 21 days after spraying, the support root development situation was collected. A total of three strains (S1, S2 and S3) of Zm-mMTHFR66, a total of two strains (S4 and S5) of Zm-MTHFR66, and a total of 1 strain of wild type (CK) were taken; and 10-15 plants were selected from each strain and tested."}, "[5]": {"tested_on": "wild-type maize plants (CK)", "conditions": "4480 g ae/ha dicamba (8 × dicamba), V5-V6 stage, 21 days after spraying", "description": "as §3, §4"}, "[6]": {"tested_on": "maize plants (Zm-MTHFR66)", "conditions": "4480 g ae/ha dicamba (8 × dicamba), V5-V6 stage, 21 days after spraying", "description": "as §3, §4"}, "[7]": {"assay": "Determination of enzymatic activity of MTHFR66 protein (dicamba to DCSA, HPLC)", "format": "biochemical", "experimental": "Enzymatic reaction system (300 μL): containing 1 mM substrate (dicamba), 0.2 mg of MTHFR66, 1 mM tetrahydrofolate (THF) and a buffer system of Tris-HCl at a concentration of 100 mM (pH 8.0), which were reacted in a water bath at a temperature of 30° C. for 1 hour, then kept in boiling water for 1 min, after which the reaction was terminated. The reaction solution was lyophilized, and then dissolved by adding 300 μl of methanol. The amount of the generated intermediate metabolite of dicamba, 3,6-dichlorosalicylic acid (DCSA), was detected using high performance liquid chromatography (HPLC). An enzymatic activity unit is defined as: the amount of enzyme required for degradation of dicamba to generate 1 nmol of product DCSA at pH 8.0, at a temperature of 30° C. within 1 min, and is expressed as U."}, "[8]": {"assay": "Dicamba demethylation function of MTHFR66 protein in the presence of trace tetrahydrofolate", "format": "biochemical", "conditions": "1 mM dicamba, 30° C., 1 hour", "experimental": "[…] The reaction solution was lyophilized, and then dissolved by adding 300 μl of methanol. The amount of the generated intermediate metabolite of dicamba, DCSA, was detected using high performance liquid chromatography (HPLC)."}, "[9]": {"assay": "Hydrolase functional determination and product identification of MTHFR66 protein", "format": "biochemical", "conditions": "absence of the electron acceptor NAD+", "experimental": "Enzymatic reaction system (300 μL): containing 0.2 mg of MTHFR66, 1 mM 5-methyl-tetrahydrofolate (5-CH3—H4F) and a buffer system of Tris-HCl at a concentration of 100 mM (pH 8.0), which were reacted in a water bath at a temperature of 30° C. for 1 hour, then kept in boiling water for 1 min, after which the reaction was terminated. The reaction solution was lyophilized, dissolved by adding 300 μl of 0.1 mol/L KH2PO4 (pH 6.8, 1% ascorbic acid and 0.1% β-mercaptoethanol), filtered using a filter membrane (with a pore size of 0.22 μm), and detected using high performance liquid chromatography. Liquid chromatography conditions were: mobile phase: 0.05 mol/l KH2PO4 (pH 3.0):acetonitrile (90:10, V/V), Zorbax C218 ODS Spherex reversed phase column (5 μm, 4.6 mm×250 mm, Agilent, USA), column temperature of 23° C., UV-detector, with a detection wavelength of 298 nm, a sample injection volume of 20 μl, and a flow rate of 1.0 mL/min. Quantification was performed by peak area according to the external standard method.\nMetabolites were identified through HPLC-MS (high performance liquid chromatography-mass spectrum) under the conditions as follows: mobile phase: 0.05 mol/l KH2PO4 (pH 3.0):acetonitrile (90:10, V/V), Zorbax XDB-C18, 5 cm×0.46 cm, 1.8 mm reversed phase column (5 μm, 4.6 mm×250 mm, Agilent, USA), and a flow rate of 0.25 mL/min. […]"}, "[10]": {"conditions": "curled rosette leaves after 7 days"}, "[11]": {"conditions": "growth consistent with water group after 7 days"}, "[12]": {"conditions": "not capable of bolting after 14 days"}}, "note": "Read-outs that look alike come from different tables or passages of the source.", "data": [{"molecule": "COc1c(Cl)ccc(Cl)c1C(=O)O", "note": "[dicamba, 3,6-dichloro-o-anisic acid]", "values": [{"measurement": "Moderately resistant (number of plants)", "setting": "[1]; [10]", "result": 3}, {"measurement": "Non-resistant (number of plants)", "setting": "[1]; dead after 14 days", "result": 19}, {"measurement": "Highly resistant (number of plants)", "setting": "[1]; [11]", "result": 0}, {"measurement": "Lowly resistant (number of plants)", "setting": "[1]; [12]", "result": 2}, {"measurement": "Moderately resistant (number of plants)", "setting": "[2]; [10]", "result": 0}, {"measurement": "Non-resistant (number of plants)", "setting": "[2]; dead after 14 days", "result": 22}, {"measurement": "Highly resistant (number of plants)", "setting": "[2]; [11]", "result": 0}, {"measurement": "Lowly resistant (number of plants)", "setting": "[2]; [12]", "result": 0}, {"measurement": "Moderately resistant (number of plants)", "setting": "[3]; [10]", "result": 18}, {"measurement": "Non-resistant (number of plants)", "setting": "[3]; dead after 14 days", "result": 5}, {"measurement": "Highly resistant (number of plants)", "setting": "[3]; [11]", "result": 0}, {"measurement": "Lowly resistant (number of plants)", "setting": "[3]; [12]", "result": 0}, {"measurement": "Proportion of normally developed support root", "setting": "[4]; strain S1 (Zm-mMTHFR66)", "result": 92.31, "unit": "%"}, {"measurement": "Support root abnormally developed (number of plants)", "setting": "[4]; strain S1 (Zm-mMTHFR66)", "result": 1}, {"measurement": "Support root normally developed (number of plants)", "setting": "[4]; strain S1 (Zm-mMTHFR66)", "result": 12}, {"measurement": "Proportion of normally developed support root", "setting": "[4]; strain S2 (Zm-mMTHFR66)", "result": 90.91, "unit": "%"}, {"measurement": "Support root abnormally developed (number of plants)", "setting": "[4]; strain S2 (Zm-mMTHFR66)", "result": 1}, {"measurement": "Support root normally developed (number of plants)", "setting": "[4]; strain S2 (Zm-mMTHFR66)", "result": 10}, {"measurement": "Proportion of normally developed support root", "setting": "[4]; strain S3 (Zm-mMTHFR66)", "result": 83.33, "unit": "%"}, {"measurement": "Support root abnormally developed (number of plants)", "setting": "[4]; strain S3 (Zm-mMTHFR66)", "result": 2}, {"measurement": "Support root normally developed (number of plants)", "setting": "[4]; strain S3 (Zm-mMTHFR66)", "result": 10}, {"measurement": "Proportion of normally developed support root", "setting": "[5]", "result": 0, "unit": "%"}, {"measurement": "Support root abnormally developed (number of plants)", "setting": "[5]", "result": 16}, {"measurement": "Support root normally developed (number of plants)", "setting": "[5]", "result": 0}, {"measurement": "Proportion of normally developed support root", "setting": "[6]; strain S4 (Zm-MTHFR66)", "result": 16.67, "unit": "%"}, {"measurement": "Support root abnormally developed (number of plants)", "setting": "[6]; strain S4 (Zm-MTHFR66)", "result": 10}, {"measurement": "Support root normally developed (number of plants)", "setting": "[6]; strain S4 (Zm-MTHFR66)", "result": 2}, {"measurement": "Proportion of normally developed support root", "setting": "[6]; strain S5 (Zm-MTHFR66)", "result": 30.77, "unit": "%"}, {"measurement": "Support root abnormally developed (number of plants)", "setting": "[6]; strain S5 (Zm-MTHFR66)", "result": 9}, {"measurement": "Support root normally developed (number of plants)", "setting": "[6]; strain S5 (Zm-MTHFR66)", "result": 4}]}, {"molecule": "B1", "values": [{"measurement": "DCSA generated within 1 hour", "setting": "[7]; 1 mM dicamba, 0.2 mg MTHFR66, 1 mM THF, Tris-HCl pH 8.0, 30° C., 1 hour", "result": 0.15, "unit": "mM"}, {"measurement": "specific enzymatic activity", "setting": "[7]; U = enzyme generating 1 nmol DCSA from dicamba at pH 8.0, 30° C. within 1 min", "result": 3.75, "unit": "U/mg"}, {"measurement": "demethylation of dicamba to DCSA", "setting": "[8]; in the presence of 0.01 mM tetrahydrofolate", "result": "can demethylate dicamba to generate DCSA"}, {"measurement": "demethylation of dicamba to DCSA", "setting": "[8]; in the presence of 0.5 mM of tetrahydrofolate", "result": "can fully demethylate 1 mM dicamba to generate DCSA"}, {"measurement": "product of 5-methyl-tetrahydrofolate metabolism (HPLC-MS)", "setting": "[9]", "result": "can hydrolyze 5-methyl-tetrahydrofolate to tetrahydrofolate"}, {"measurement": "transformation of 5-methyl-tetrahydrofolate (HPLC)", "setting": "[9]; 1 mM 5-methyl-tetrahydrofolate, 30° C., 1 hour", "result": "can transform 5-methyl-tetrahydrofolate to other substances"}]}]}
